pEC50: −log10 of the molar value.

The pEC50 is the EC50 on a negative log10 scale, so that one unit is a factor of ten. Higher therefore signals a small EC50.

This test has as its target TRPM7 (Mus musculus, UniProt Q923J1). Briefly: Fura-2 Ca2+ imaging in LS8 cells. Format: cell-based.

TRPM7, sequence (Q923J1 whole entry): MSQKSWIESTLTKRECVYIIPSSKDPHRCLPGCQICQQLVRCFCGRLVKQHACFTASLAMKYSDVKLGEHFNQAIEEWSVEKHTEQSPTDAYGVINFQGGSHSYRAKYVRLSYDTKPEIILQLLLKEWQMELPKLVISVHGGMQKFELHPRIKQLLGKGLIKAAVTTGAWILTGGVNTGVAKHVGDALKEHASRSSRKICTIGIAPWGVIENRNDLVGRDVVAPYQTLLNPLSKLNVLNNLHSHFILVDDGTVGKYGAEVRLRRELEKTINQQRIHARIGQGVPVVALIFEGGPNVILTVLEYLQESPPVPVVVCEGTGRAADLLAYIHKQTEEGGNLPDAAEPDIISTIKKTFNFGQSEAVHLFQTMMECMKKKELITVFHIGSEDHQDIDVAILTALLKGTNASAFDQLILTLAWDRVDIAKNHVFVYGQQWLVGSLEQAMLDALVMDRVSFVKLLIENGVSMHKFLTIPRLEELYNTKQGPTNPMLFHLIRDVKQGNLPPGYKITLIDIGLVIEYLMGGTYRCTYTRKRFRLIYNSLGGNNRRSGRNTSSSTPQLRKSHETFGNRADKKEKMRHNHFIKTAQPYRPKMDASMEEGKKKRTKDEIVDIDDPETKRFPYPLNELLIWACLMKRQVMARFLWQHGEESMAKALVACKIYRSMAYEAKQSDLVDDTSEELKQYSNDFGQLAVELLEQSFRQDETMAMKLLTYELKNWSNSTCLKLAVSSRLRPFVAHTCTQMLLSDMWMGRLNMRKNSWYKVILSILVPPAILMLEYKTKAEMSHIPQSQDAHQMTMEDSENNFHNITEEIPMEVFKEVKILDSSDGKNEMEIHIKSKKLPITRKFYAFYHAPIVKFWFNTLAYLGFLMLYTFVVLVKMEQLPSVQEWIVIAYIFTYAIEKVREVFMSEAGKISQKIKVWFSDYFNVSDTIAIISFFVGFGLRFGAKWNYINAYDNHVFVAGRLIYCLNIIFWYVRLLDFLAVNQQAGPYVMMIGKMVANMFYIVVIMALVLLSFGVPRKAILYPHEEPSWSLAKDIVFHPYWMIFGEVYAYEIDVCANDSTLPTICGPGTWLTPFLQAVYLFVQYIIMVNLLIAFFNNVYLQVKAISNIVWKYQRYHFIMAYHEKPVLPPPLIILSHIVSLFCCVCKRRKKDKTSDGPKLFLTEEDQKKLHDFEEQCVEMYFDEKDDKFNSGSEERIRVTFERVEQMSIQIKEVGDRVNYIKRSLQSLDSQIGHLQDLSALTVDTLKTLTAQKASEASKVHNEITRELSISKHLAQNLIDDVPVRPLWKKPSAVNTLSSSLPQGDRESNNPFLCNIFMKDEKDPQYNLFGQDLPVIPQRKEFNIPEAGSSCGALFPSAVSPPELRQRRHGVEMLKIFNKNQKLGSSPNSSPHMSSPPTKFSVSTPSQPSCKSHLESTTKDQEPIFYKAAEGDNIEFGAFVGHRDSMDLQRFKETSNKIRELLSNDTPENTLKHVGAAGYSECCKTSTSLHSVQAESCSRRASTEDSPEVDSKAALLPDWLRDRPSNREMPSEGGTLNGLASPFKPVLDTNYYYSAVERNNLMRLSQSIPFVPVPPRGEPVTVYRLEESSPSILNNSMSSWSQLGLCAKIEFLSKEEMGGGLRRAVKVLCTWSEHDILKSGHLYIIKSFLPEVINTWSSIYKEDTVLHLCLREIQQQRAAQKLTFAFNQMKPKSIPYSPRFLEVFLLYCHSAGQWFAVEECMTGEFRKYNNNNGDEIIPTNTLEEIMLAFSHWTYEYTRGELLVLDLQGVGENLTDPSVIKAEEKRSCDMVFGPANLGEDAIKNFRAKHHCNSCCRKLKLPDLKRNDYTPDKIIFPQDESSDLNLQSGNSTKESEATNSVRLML

Regarding `Oc1ccc2c3c1O[C@H]1c4oc5ccccc5c4C[C@@]4(O)[C@@H](C2)N(CC2CC2)CC[C@]314` [NAL, naltriben], the pEC50 is around 4.35.

These data come from publication PMC7202080 (Cell calcium, 2020).
